Experimental findings from ChEMBL document CHEMBL5291721, “A preclinical secondary pharmacology resource illuminates target-adverse drug reaction associations of marketed drugs” (Nat Commun, 2023) are described below.

The term AC50 denotes the concentration at which the activity in the assay is half-maximal.

The structures appear in SMILES notation.

Some targets named below: Adenosine receptor A2a (Homo sapiens, UniProt P29274); Vasopressin V2 receptor (Homo sapiens, UniProt P30518); Motilin receptor (Homo sapiens, UniProt O43193); Vasopressin V1a receptor (Homo sapiens, UniProt P37288).
The target of the next assay is T1, Progesterone receptor (Homo sapiens, UniProt P06401).
T1 sequence (P06401 whole entry): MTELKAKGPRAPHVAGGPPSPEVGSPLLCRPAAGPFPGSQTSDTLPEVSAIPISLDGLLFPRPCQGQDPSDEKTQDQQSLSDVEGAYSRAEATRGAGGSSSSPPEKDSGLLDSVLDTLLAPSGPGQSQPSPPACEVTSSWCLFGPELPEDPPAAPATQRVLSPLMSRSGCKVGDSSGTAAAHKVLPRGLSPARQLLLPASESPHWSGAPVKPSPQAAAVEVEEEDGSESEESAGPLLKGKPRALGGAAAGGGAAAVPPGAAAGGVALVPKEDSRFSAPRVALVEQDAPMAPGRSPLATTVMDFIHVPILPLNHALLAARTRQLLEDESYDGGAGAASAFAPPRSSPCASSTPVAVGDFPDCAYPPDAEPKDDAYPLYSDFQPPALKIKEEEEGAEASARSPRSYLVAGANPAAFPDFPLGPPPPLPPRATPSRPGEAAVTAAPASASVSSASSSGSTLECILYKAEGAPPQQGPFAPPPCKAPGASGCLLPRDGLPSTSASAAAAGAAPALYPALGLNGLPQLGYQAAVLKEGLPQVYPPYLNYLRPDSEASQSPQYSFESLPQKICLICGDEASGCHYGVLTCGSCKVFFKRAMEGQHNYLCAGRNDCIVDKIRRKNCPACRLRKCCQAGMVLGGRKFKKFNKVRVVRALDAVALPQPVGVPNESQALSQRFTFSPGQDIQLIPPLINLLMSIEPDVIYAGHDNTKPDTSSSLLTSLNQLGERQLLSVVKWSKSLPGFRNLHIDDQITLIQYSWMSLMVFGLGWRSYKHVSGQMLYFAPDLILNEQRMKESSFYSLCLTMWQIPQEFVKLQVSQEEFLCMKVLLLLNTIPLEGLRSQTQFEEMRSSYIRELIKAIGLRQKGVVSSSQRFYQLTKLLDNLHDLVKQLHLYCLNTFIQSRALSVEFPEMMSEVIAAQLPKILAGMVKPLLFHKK
In kind it is functional.

Another assay concerns the target T2, Glucocorticoid receptor (Homo sapiens, UniProt P04150).
T2 sequence (P04150 whole entry): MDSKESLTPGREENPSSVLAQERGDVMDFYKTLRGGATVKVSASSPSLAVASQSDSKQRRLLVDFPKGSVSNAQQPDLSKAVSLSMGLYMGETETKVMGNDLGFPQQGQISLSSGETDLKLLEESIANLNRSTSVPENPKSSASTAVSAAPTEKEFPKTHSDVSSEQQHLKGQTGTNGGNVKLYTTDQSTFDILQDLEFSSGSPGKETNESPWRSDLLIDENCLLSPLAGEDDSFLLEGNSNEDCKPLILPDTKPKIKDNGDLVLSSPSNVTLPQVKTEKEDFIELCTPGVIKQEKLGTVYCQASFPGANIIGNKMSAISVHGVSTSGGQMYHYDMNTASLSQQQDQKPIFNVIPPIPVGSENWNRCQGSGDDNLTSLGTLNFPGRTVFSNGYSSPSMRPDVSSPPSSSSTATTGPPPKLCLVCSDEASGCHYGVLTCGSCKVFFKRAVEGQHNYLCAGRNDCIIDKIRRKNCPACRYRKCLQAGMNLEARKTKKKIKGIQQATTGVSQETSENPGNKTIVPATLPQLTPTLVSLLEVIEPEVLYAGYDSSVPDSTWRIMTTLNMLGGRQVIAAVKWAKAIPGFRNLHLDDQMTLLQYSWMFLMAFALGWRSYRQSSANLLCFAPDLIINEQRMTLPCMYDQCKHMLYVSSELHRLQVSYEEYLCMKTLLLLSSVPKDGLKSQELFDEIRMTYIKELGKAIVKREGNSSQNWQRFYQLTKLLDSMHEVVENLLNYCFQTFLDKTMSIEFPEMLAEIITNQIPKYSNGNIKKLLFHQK

The target of assay [1] is Glutamate receptor ionotropic, NMDA 1 (Rattus norvegicus, UniProt P35439).
In assay [2] the target is T3, Neuropeptide Y receptor type 1 (Homo sapiens, UniProt P25929).
T3 sequence (P25929 whole entry): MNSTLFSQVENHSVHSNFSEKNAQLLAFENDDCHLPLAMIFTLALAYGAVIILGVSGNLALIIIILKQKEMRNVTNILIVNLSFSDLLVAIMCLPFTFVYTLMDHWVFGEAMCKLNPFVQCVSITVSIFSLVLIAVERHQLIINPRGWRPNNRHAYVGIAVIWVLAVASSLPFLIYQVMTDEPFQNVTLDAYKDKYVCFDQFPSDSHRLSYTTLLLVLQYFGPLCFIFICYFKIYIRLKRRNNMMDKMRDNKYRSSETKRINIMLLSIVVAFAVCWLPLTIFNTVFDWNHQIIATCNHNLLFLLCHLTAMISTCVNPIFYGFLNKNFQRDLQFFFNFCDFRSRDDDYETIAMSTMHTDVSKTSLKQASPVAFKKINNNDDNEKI
Also: assay procedure not described here.

Vasopressin V1a receptor, sequence (P37288 whole entry): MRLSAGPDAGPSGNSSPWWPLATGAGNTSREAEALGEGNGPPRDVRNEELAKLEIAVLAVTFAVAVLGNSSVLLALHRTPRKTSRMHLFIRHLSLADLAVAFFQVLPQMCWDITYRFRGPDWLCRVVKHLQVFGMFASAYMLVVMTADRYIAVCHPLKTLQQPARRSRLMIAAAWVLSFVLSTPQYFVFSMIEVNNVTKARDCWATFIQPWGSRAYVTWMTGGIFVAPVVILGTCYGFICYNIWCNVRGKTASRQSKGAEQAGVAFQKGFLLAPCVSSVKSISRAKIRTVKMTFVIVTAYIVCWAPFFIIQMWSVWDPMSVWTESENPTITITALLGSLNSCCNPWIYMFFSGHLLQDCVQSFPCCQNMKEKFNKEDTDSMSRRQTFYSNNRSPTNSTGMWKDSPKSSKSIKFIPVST
Vasopressin V2 receptor, sequence (P30518 whole entry): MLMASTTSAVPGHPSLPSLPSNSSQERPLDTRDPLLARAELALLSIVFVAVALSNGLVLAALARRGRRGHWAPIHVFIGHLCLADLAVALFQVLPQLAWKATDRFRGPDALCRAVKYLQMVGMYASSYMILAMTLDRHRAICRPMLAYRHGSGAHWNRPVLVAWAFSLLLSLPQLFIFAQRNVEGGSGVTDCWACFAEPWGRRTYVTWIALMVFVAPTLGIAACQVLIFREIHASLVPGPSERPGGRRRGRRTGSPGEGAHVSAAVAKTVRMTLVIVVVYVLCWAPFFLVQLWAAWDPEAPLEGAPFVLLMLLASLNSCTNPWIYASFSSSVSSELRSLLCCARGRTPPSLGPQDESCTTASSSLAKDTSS
Adenosine receptor A2a, sequence (P29274 whole entry): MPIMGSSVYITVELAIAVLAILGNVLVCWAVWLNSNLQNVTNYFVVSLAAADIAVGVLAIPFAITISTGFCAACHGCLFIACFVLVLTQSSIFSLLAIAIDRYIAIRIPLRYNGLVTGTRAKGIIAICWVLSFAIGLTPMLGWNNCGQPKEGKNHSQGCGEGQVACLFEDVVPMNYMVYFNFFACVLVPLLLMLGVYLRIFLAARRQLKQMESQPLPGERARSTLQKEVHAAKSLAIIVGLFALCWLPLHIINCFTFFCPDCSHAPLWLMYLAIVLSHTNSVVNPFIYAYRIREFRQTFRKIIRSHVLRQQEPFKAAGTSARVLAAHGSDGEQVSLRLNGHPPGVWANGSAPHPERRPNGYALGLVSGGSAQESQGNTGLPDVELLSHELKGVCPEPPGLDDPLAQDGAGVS
Motilin receptor, sequence (O43193 whole entry): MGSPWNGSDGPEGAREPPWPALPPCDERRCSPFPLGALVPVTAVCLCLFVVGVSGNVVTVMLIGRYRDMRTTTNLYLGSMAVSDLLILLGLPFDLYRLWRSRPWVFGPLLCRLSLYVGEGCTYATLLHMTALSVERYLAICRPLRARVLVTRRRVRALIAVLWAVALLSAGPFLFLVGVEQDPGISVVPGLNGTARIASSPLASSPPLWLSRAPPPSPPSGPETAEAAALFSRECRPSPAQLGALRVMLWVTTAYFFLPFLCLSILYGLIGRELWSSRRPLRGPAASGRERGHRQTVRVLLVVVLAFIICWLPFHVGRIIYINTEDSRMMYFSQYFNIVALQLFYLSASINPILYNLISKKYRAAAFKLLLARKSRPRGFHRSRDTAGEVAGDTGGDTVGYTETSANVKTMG

For the compound `COc1ccc2cc(CCC(C)=O)ccc2c1` [NABUMETONE], the AC50 (at Progesterone receptor; on Glucocorticoid receptor; at Adenosine receptor A2a; in assay [1]; at Vasopressin V2 receptor; in assay [2]) was above 10 µM each time. Also, the AC50 on Motilin receptor was above 10 µM.

In the case of `CC1=C(/C=C/C(C)=C/C=C/C(C)=C/CO)C(C)(C)CCC1` [RETINOL], the AC50 on Progesterone receptor was above 30 µM; at Vasopressin V1a receptor, above 10 µM; at Adenosine receptor A2a it was above 10 µM; in assay [1], above 10 µM; at Vasopressin V2 receptor, above 10 µM; in assay [2], above 10 µM. Also, the AC50 at Motilin receptor was above 10 µM.

With `CCCN(CCC)S(=O)(=O)c1ccc(C(=O)O)cc1` [PROBENECID], the AC50 (on Progesterone receptor; at Glucocorticoid receptor; at Adenosine receptor A2a; in assay [1]; at Vasopressin V2 receptor; in assay [2]) was above 10 µM each time. Besides, the AC50 at Motilin receptor was above 10 µM.

On to `NC(=O)NC(=O)Cc1ccccc1` [PHENACEMIDE], for which the AC50 (at Progesterone receptor; on Glucocorticoid receptor; on Adenosine receptor A2a; in assay [1]; at Vasopressin V2 receptor; in assay [2]) was above 10 µM each time. The compound also yielded an AC50 at Motilin receptor above 10 µM.

`CO[C@H]1C[C@H](O[C@H]2CC[C@@]3(C)[C@H](CC[C@@H]4[C@@H]3CC[C@]3(C)[C@@H](C5=CC(=O)OC5)[C@@H](OC(C)=O)C[C@]43O)C2)O[C@@H](C)[C@@H]1O` [OLEANDRIN]: the AC50 in assay [1] is above 30 µM.

For the compound `O=C(O)c1ccc(NC(=O)[C@H](Cc2ccc(O)cc2)NC(=O)c2ccccc2)cc1` [BENTIROMIDE], the AC50 (at Progesterone receptor; on Vasopressin V1a receptor; at Adenosine receptor A2a; in assay [1]; at Vasopressin V2 receptor; in assay [2]) was above 10 µM in each case. Also, on Motilin receptor, the AC50 is above 10 µM.

Take `CC(C)[C@@H](C)/C=C/[C@@H](C)[C@H]1CC[C@H]2/C(=C/C=C3\C[C@@H](O)CC[C@@H]3C)CCC[C@]12C` [DIHYDROTACHYSTEROL]: the AC50 at Progesterone receptor is above 30 µM; at Vasopressin V1a receptor, above 10 µM; on Adenosine receptor A2a it was above 10 µM; in assay [1], above 10 µM; on Vasopressin V2 receptor, above 10 µM; in assay [2], above 10 µM. For the same compound, at Motilin receptor, the AC50 is above 10 µM.

As for `CCC1(CCC(C)C)C(=O)NC(=O)NC1=O` [AMOBARBITAL], the AC50 (at Progesterone receptor; at Adenosine receptor A2a; in assay [1]; on Vasopressin V2 receptor; in assay [2]; on Motilin receptor) was above 10 µM in each case.

In the case of `CCCCCCCC(=O)CC[C@@H]1[C@@H](C/C=C\CCCC(=O)OC(C)C)[C@@H](O)C[C@H]1O` [UNOPROSTONE ISOPROPYL], the AC50 on Progesterone receptor is above 30 µM.

For `Cc1cc(C)nc(NS(=O)(=O)c2ccc(N)cc2)n1` [SULFAMETHAZINE], the AC50 (at Progesterone receptor; on Glucocorticoid receptor; on Adenosine receptor A2a; in assay [1]; on Vasopressin V2 receptor; in assay [2]) was above 10 µM in each case. The same compound registered an AC50 at Motilin receptor above 10 µM.

For the compound `CC(c1cc2ccccc2s1)N(O)C(N)=O` (stereo unspecified) [ZILEUTON], the AC50 on Progesterone receptor was above 30 µM; on Glucocorticoid receptor it was above 30 µM; on Adenosine receptor A2a, above 10 µM; in assay [1] it was above 10 µM; on Vasopressin V2 receptor, above 10 µM; in assay [2], above 10 µM. Also, at Motilin receptor, the AC50 was above 10 µM.

For `COc1ccc(C2C(=O)c3ccccc3C2=O)cc1` [ANISINDIONE], the AC50 on Progesterone receptor is above 30 µM; at Glucocorticoid receptor, above 30 µM; on Adenosine receptor A2a, above 10 µM; in assay [1] it was above 10 µM; at Vasopressin V2 receptor it was above 10 µM; in assay [2] it was above 10 µM. The compound also returned an AC50 on Motilin receptor above 10 µM.
